Results published in PMC5218480 (PLoS ONE, 2017).

System: MV-4-11 cells
Experiment: Gene expression microarray analysis (Affymetrix PrimeView) and GSEA
Format: cell-based, human
Parameters: RFU PODN (11730768_x_at) / Fold change /veh PODN (11730768_x_at) / RFU LINC00158 (11744669_a_at) / Fold change /veh LINC00158 (11744669_a_at) / RFU DUSP10 (11751237_a_at) / Fold change /veh DUSP10 (11751237_a_at) / RFU ID3 (11757404_x_at) / Fold change /veh ID3 (11757404_x_at) / RFU PLEKHG5 (11737974_s_at) / Fold change /veh PLEKHG5 (11737974_s_at) / RFU LRRC4B (11730491_at) / Fold change /veh LRRC4B (11730491_at) / RFU GIMAP4 (11747438_a_at) / Fold change /veh GIMAP4 (11747438_a_at) / RFU KRT8 (11758183_x_at) / Fold change /veh KRT8 (11758183_x_at) / RFU CNN1 (11734310_a_at) / Fold change /veh CNN1 (11734310_a_at) / RFU VPS37D (11726825_at) / Fold change /veh VPS37D (11726825_at) / RFU C10orf10 (11716522_x_at) / Fold change /veh C10orf10 (11716522_x_at) / RFU KIR2DL2 /// KIR2DL4 /// KIR2DL5A /// KIR2DL5B /// KIR2DS1 /// KIR2DS2 /// KIR2DS3 /// KIR2DS4 /// KIR3DL3 /// KIR3DL3 /// KIR3DS1 (11738374_at) / Fold change /veh KIR2DL2 /// KIR2DL4 /// KIR2DL5A /// KIR2DL5B /// KIR2DS1 /// KIR2DS2 /// KIR2DS3 /// KIR2DS4 /// KIR3DL3 /// KIR3DL3 /// KIR3DS1 (11738374_at) / RFU C1QL1 (11718748_at) / Fold change /veh C1QL1 (11718748_at) / RFU TMPRSS4 (11747572_a_at) / Fold change /veh TMPRSS4 (11747572_a_at) / RFU HAMP (11756126_x_at) / Fold change /veh HAMP (11756126_x_at) / RFU RNFT2 (11725882_a_at) / Fold change /veh RNFT2 (11725882_a_at) / RFU NR4A2 (11747474_a_at) / Fold change /veh NR4A2 (11747474_a_at) / RFU ABCC12 (11746883_a_at) / Fold change /veh ABCC12 (11746883_a_at) / RFU TMEM136 (11760407_x_at) / Fold change /veh TMEM136 (11760407_x_at) / RFU CLDN22 /// WWC2 (11732394_at) / Fold change /veh CLDN22 /// WWC2 (11732394_at) / RFU HLA-DPB1 (11760878_x_at) / Fold change /veh HLA-DPB1 (11760878_x_at) / RFU SPINT1 (11716480_a_at) / Fold change /veh SPINT1 (11716480_a_at) / RFU GAP43 (11754022_s_at) / Fold change /veh GAP43 (11754022_s_at) / RFU A4GNT (11735810_at) / Fold change /veh A4GNT (11735810_at) / RFU PRB3 (11715151_x_at) / Fold change /veh PRB3 (11715151_x_at) / RFU TUBB4B (11761932_at) / Fold change /veh TUBB4B (11761932_at) / RFU CAPN14 (11732068_a_at) / Fold change /veh CAPN14 (11732068_a_at) / RFU TMCC2 (11721928_a_at) / Fold change /veh TMCC2 (11721928_a_at) / RFU IRGQ (11745062_a_at) / Fold change /veh IRGQ (11745062_a_at) / RFU FAM174B (11720279_a_at) / Fold change /veh FAM174B (11720279_a_at) / RFU TMPRSS4 (11748680_a_at) / Fold change /veh TMPRSS4 (11748680_a_at) / RFU FAM212B (11763350_a_at) / Fold change /veh FAM212B (11763350_a_at) / RFU PLEKHG5 (11743358_a_at) / Fold change /veh PLEKHG5 (11743358_a_at) / RFU ZSCAN30 (11745921_a_at) / Fold change /veh ZSCAN30 (11745921_a_at) / RFU CMKLR1 (11741424_a_at) / Fold change /veh CMKLR1 (11741424_a_at) / RFU LOC101060620 /// MAPK8IP1 (11723275_at) / Fold change /veh LOC101060620 /// MAPK8IP1 (11723275_at) / RFU SPTSSB (11747773_x_at) / Fold change /veh SPTSSB (11747773_x_at) / RFU PRSS12 (11739890_at) / Fold change /veh PRSS12 (11739890_at) / RFU BIN1 (11741810_x_at) / Fold change /veh BIN1 (11741810_x_at) / RFU WNT11 (11732464_a_at) / Fold change /veh WNT11 (11732464_a_at) / RFU C10orf10 (11716521_a_at) / Fold change /veh C10orf10 (11716521_a_at) / RFU C5orf56 (11738089_at) / Fold change /veh C5orf56 (11738089_at) / RFU CYB561 (11721691_x_at) / Fold change /veh CYB561 (11721691_x_at) / RFU ANKRD19P (11752326_a_at) / Fold change /veh ANKRD19P (11752326_a_at) / RFU OR2T12 /// OR2T33 /// OR2T8 (11738714_s_at) / Fold change /veh OR2T12 /// OR2T33 /// OR2T8 (11738714_s_at) / RFU VCAN (11748164_a_at) / Fold change /veh VCAN (11748164_a_at) / RFU JSRP1 (11732532_at) / Fold change /veh JSRP1 (11732532_at) / RFU KRTAP10-11 (11738290_x_at) / Fold change /veh KRTAP10-11 (11738290_x_at) / RFU MYO3A (11730013_a_at) / Fold change /veh MYO3A (11730013_a_at) / RFU EBF3 (11725865_a_at) / Fold change /veh EBF3 (11725865_a_at) / RFU CAMK2N1 (11719241_x_at) / Fold change /veh CAMK2N1 (11719241_x_at) / RFU C5orf56 (11738088_a_at) / Fold change /veh C5orf56 (11738088_a_at) / RFU OLFML3 (11715873_a_at) / Fold change /veh OLFML3 (11715873_a_at) / RFU LOC100653217 /// NTM (11731650_a_at) / Fold change /veh LOC100653217 /// NTM (11731650_a_at) / RFU MAPK11 (11762145_a_at) / Fold change /veh MAPK11 (11762145_a_at) / RFU FIZ1 (11724087_x_at) / Fold change /veh FIZ1 (11724087_x_at) / RFU OASL (11726364_x_at) / Fold change /veh OASL (11726364_x_at) / RFU SOX15 (11748057_x_at) / Fold change /veh SOX15 (11748057_x_at) / RFU CD79A (11719716_a_at) / Fold change /veh CD79A (11719716_a_at) / RFU HIST1H1D (11736915_at) / Fold change /veh HIST1H1D (11736915_at) / RFU CASKIN2 (11723855_a_at) / Fold change /veh CASKIN2 (11723855_a_at) / RFU LOC730098 (11760151_x_at) / Fold change /veh LOC730098 (11760151_x_at) / RFU OR4N2 (11742367_at) / Fold change /veh OR4N2 (11742367_at) / RFU PRRT2 (11749266_a_at) / Fold change /veh PRRT2 (11749266_a_at) / RFU SNX32 (11753110_a_at) / Fold change /veh SNX32 (11753110_a_at) / RFU CDHR5 (11726645_a_at) / Fold change /veh CDHR5 (11726645_a_at) / RFU RCAN1 (11760418_a_at) / Fold change /veh RCAN1 (11760418_a_at) / RFU FAM167A (11723789_a_at) / Fold change /veh FAM167A (11723789_a_at) / RFU FAM26E (11764081_at) / Fold change /veh FAM26E (11764081_at) / RFU ISYNA1 (11749810_s_at) / Fold change /veh ISYNA1 (11749810_s_at) / RFU ACY1 (11761880_at) / Fold change /veh ACY1 (11761880_at) / RFU 11764098_at / Fold change /veh 11764098_at / RFU SAMD14 (11745864_x_at) / Fold change /veh SAMD14 (11745864_x_at) / RFU NPB (11741838_a_at) / Fold change /veh NPB (11741838_a_at) / RFU TMPRSS6 (11731388_a_at) / Fold change /veh TMPRSS6 (11731388_a_at) / RFU KRTAP10-2 (11738614_at) / Fold change /veh KRTAP10-2 (11738614_at) / RFU ARHGAP8 /// PRR5-ARHGAP8 (11727945_x_at) / Fold change /veh ARHGAP8 /// PRR5-ARHGAP8 (11727945_x_at) / RFU KRTAP5-7 /// NADSYN1 (11734609_at) / Fold change /veh KRTAP5-7 /// NADSYN1 (11734609_at) / RFU RASL12 (11751679_a_at) / Fold change /veh RASL12 (11751679_a_at) / RFU CDKN2B (11736163_a_at) / Fold change /veh CDKN2B (11736163_a_at) / RFU PRF1 (11729649_at) / Fold change /veh PRF1 (11729649_at) / RFU, ZNF638 /// ZNF638-IT1 / Fold change vs veh, ZNF638 /// ZNF638-IT1 / RFU, PANK3 / Fold change vs veh, PANK3 / RFU, SH3YL1 / Fold change vs veh, SH3YL1 / RFU, ZEB2 / Fold change vs veh, ZEB2 / RFU, NRIP1 / Fold change vs veh, NRIP1 / RFU, PTTG1IP / Fold change vs veh, PTTG1IP / RFU, CAPN2 / Fold change vs veh, CAPN2 / RFU, MED14 / Fold change vs veh, MED14 / RFU, SNORA58 / Fold change vs veh, SNORA58 / RFU, C1orf63 / Fold change vs veh, C1orf63 / RFU, LRRFIP1 / Fold change vs veh, LRRFIP1 / RFU, NDUFAF7 / Fold change vs veh, NDUFAF7 / RFU, SLC12A2 / Fold change vs veh, SLC12A2 / RFU, IBTK / Fold change vs veh, IBTK / RFU, ESF1 / Fold change vs veh, ESF1 / Fold change vs veh, TMEM50B / RFU, TAOK1 / Fold change vs veh, TAOK1 / RFU, ACBD3 / Fold change vs veh, ACBD3 / RFU, TMA16 / Fold change vs veh, TMA16 / RFU, RWDD3 / Fold change vs veh, RWDD3 / RFU, BCAT1 / Fold change vs veh, BCAT1 / RFU, EDEM3 / Fold change vs veh, EDEM3 / RFU, TMEM33 / Fold change vs veh, TMEM33 / RFU, WDR75 / Fold change vs veh, WDR75 / RFU, AHCTF1 / Fold change vs veh, AHCTF1 / RFU, TFRC / Fold change vs veh, TFRC / RFU, ZDHHC17 / Fold change vs veh, ZDHHC17 / RFU, NOM1 / Fold change vs veh, NOM1 / RFU, ARL8B / Fold change vs veh, ARL8B / RFU, ZBTB11 / Fold change vs veh, ZBTB11 / RFU, TAMM41 / Fold change vs veh, TAMM41 / RFU, KIAA1704 /// LOC100996395 / Fold change vs veh, KIAA1704 /// LOC100996395 / RFU, ING1 / Fold change vs veh, ING1 / RFU, TRMT61B / Fold change vs veh, TRMT61B / RFU, FUBP3 / Fold change vs veh, FUBP3 / RFU, TP53 / Fold change vs veh, TP53 / RFU, TNKS2 / Fold change vs veh, TNKS2 / RFU, ZFP14 / Fold change vs veh, ZFP14 / RFU, ACTR2 / Fold change vs veh, ACTR2 / RFU, PPP3R1 / Fold change vs veh, PPP3R1 / RFU, PIK3R1 / Fold change vs veh, PIK3R1 / RFU, HNRNPA1 / Fold change vs veh, HNRNPA1 / RFU, RNF170 / Fold change vs veh, RNF170 / RFU, ZNF28 / Fold change vs veh, ZNF28 / RFU, RNGTT / Fold change vs veh, RNGTT / RFU, OGT / Fold change vs veh, OGT / RFU, BRD1 / Fold change vs veh, BRD1 / RFU, MARS / Fold change vs veh, MARS / RFU, ZNF655 / Fold change vs veh, ZNF655 / RFU, FAHD1 / Fold change vs veh, FAHD1 / RFU, BDP1 / Fold change vs veh, BDP1 / RFU, LRRCC1 / Fold change vs veh, LRRCC1 / RFU, ARID1A / Fold change vs veh, ARID1A / RFU, ZNF146 / Fold change vs veh, ZNF146 / RFU, ZNF330 / Fold change vs veh, ZNF330 / RFU, GPN3 / Fold change vs veh, GPN3 / RFU, C9orf123 / Fold change vs veh, C9orf123 / RFU, N4BP2L2 / Fold change vs veh, N4BP2L2 / RFU, ARFIP1 / Fold change vs veh, ARFIP1 / RFU, FAM179B / Fold change vs veh, FAM179B / RFU, BCL10 / Fold change vs veh, BCL10 / RFU, UHRF1BP1L / Fold change vs veh, UHRF1BP1L / RFU, BET1 / Fold change vs veh, BET1 / RFU, CNOT2 / Fold change vs veh, CNOT2 / RFU, ZNF268 / Fold change vs veh, ZNF268 / Fold change vs veh, ZNF507 / RFU, DGCR2 / Fold change vs veh, DGCR2 / RFU, WDSUB1 / Fold change vs veh, WDSUB1 / Fold change vs veh, HSP90B1 /// MIR3652 / RFU, ADSS / Fold change vs veh, ADSS / RFU, GK / Fold change vs veh, GK / RFU, ZNF148 / Fold change vs veh, ZNF148 / RFU, TAF9 / Fold change vs veh, TAF9 / RFU, SLC1A5 / Fold change vs veh, SLC1A5 / RFU, SLMO2 / Fold change vs veh, SLMO2 / RFU, ABCC4 / Fold change vs veh, ABCC4 / RFU, LOC101060439 /// RAP1B / Fold change vs veh, LOC101060439 /// RAP1B / RFU, RFX7 / Fold change vs veh, RFX7 / RFU, GTPBP10 / Fold change vs veh, GTPBP10 / RFU, CNEP1R1 / Fold change vs veh, CNEP1R1 / RFU, BIVM-ERCC5 /// ERCC5 / Fold change vs veh, BIVM-ERCC5 /// ERCC5 / RFU, ILF3 / Fold change vs veh, ILF3 / RFU 11762660_at / Fold change /veh 11762660_at / RFU VCAN (11757783_s_at) / Fold change /veh VCAN (11757783_s_at) / RFU DDX43 (11728927_at) / Fold change /veh DDX43 (11728927_at) / RFU KRT8 (11758188_x_at) / Fold change /veh KRT8 (11758188_x_at) / RFU NKD1 (11759106_at) / Fold change /veh NKD1 (11759106_at) / RFU SRD5A1 (11742802_a_at) / Fold change /veh SRD5A1 (11742802_a_at) / RFU TPSAB1 /// TPSB2 (11721975_s_at) / Fold change /veh TPSAB1 /// TPSB2 (11721975_s_at) / RFU GSTM3 (11746129_a_at) / Fold change /veh GSTM3 (11746129_a_at) / RFU IL23R (11737362_x_at) / Fold change /veh IL23R (11737362_x_at) / RFU TMEM51 (11727254_a_at) / Fold change /veh TMEM51 (11727254_a_at) / RFU PIWIL2 (11732686_x_at) / Fold change /veh PIWIL2 (11732686_x_at) / RFU ORM1 (11744905_x_at) / Fold change /veh ORM1 (11744905_x_at) / RFU CCDC152 (11743942_at) / Fold change /veh CCDC152 (11743942_at) / RFU ECM1 (11717891_a_at) / Fold change /veh ECM1 (11717891_a_at) / RFU IL23R (11748794_a_at) / Fold change /veh IL23R (11748794_a_at) / RFU TNFAIP8L3 (11732012_x_at) / Fold change /veh TNFAIP8L3 (11732012_x_at) / RFU MBOAT4 (11741988_at) / Fold change /veh MBOAT4 (11741988_at) / RFU 11764193_at / Fold change /veh 11764193_at / RFU TMEM53 (11763286_at) / Fold change /veh TMEM53 (11763286_at) / RFU MAGEB2 (11727129_at) / Fold change /veh MAGEB2 (11727129_at) / RFU TMEM200A (11744735_a_at) / Fold change /veh TMEM200A (11744735_a_at) / RFU CCDC152 (11751479_a_at) / Fold change /veh CCDC152 (11751479_a_at) / RFU FAM211A (11726209_a_at) / Fold change /veh FAM211A (11726209_a_at) / RFU RGS16 (11746705_a_at) / Fold change /veh RGS16 (11746705_a_at) / RFU VCAN (11755009_s_at) / Fold change /veh VCAN (11755009_s_at) / RFU RHOB (11743442_s_at) / Fold change /veh RHOB (11743442_s_at) / RFU RGS16 (11720943_a_at) / Fold change /veh RGS16 (11720943_a_at) / RFU RGS16 (11720944_at) / Fold change /veh RGS16 (11720944_at) / RFU, VPS4B / Fold change vs veh, VPS4B / RFU, CREB1 / Fold change vs veh, CREB1 / RFU, DNAJC13 / Fold change vs veh, DNAJC13 / RFU, GNAQ / Fold change vs veh, GNAQ / RFU, CDK5R1 / Fold change vs veh, CDK5R1 / RFU, ZRANB3 / Fold change vs veh, ZRANB3 / RFU, CUL4A / Fold change vs veh, CUL4A / RFU, CCNY / Fold change vs veh, CCNY / RFU, UFL1 / Fold change vs veh, UFL1 / RFU, COG3 / Fold change vs veh, COG3 / RFU, DIAPH2 / Fold change vs veh, DIAPH2 / RFU, SKA2 / Fold change vs veh, SKA2 / RFU, AFF3 / Fold change vs veh, AFF3 / RFU, LMF1 / Fold change vs veh, LMF1 / RFU, IPO11 / Fold change vs veh, IPO11 / RFU, DFFB / Fold change vs veh, DFFB / RFU, FOXP1 / Fold change vs veh, FOXP1 / RFU, CARD8 / Fold change vs veh, CARD8 / RFU, STRN3 / Fold change vs veh, STRN3 / RFU, ADK / Fold change vs veh, ADK / RFU, RASSF2 / Fold change vs veh, RASSF2 / RFU, WIPF1 / Fold change vs veh, WIPF1 / RFU, LARP1B / Fold change vs veh, LARP1B / RFU, RASA1 / Fold change vs veh, RASA1 / RFU, RB1 / Fold change vs veh, RB1 / RFU, PPFIA1 / Fold change vs veh, PPFIA1 / RFU, MAT2A / Fold change vs veh, MAT2A / RFU, CCT5 / Fold change vs veh, CCT5 / RFU, WDR92 / Fold change vs veh, WDR92 / RFU, CUX1 / Fold change vs veh, CUX1 / RFU, TTC7A / Fold change vs veh, TTC7A / RFU, TMEM135 / Fold change vs veh, TMEM135 / RFU, DEPTOR / Fold change vs veh, DEPTOR / RFU, CPM / Fold change vs veh, CPM / RFU, DNAJB6 / Fold change vs veh, DNAJB6 / RFU, CACNA2D3 / Fold change vs veh, CACNA2D3 / RFU, DTX4 / Fold change vs veh, DTX4 / RFU, TFCP2 / Fold change vs veh, TFCP2 / RFU, GMCL1 /// GMCL1P1 / Fold change vs veh, GMCL1 /// GMCL1P1 / RFU, AEBP2 / Fold change vs veh, AEBP2 / RFU, SNHG1 /// SNORD22 /// SNORD25 /// SNORD26 /// SNORD27 /// SNORD28 /// SNORD29 /// SNORD31 / Fold change vs veh, SNHG1 /// SNORD22 /// SNORD25 /// SNORD26 /// SNORD27 /// SNORD28 /// SNORD29 /// SNORD31 / Fold change (Aza/veh), C12orf56 (ProbeSet 11735607_a_at) / Fold change (ACY-1035/veh), C12orf56 (ProbeSet 11735607_a_at) / Fold change (Aza/veh), FGFR1OP (ProbeSet 11751329_s_at) / Fold change (ACY-1035/veh), FGFR1OP (ProbeSet 11751329_s_at) / Fold change (Aza/veh), VPS36 (ProbeSet 11739960_a_at) / Fold change (ACY-1035/veh), VPS36 (ProbeSet 11739960_a_at) / RFU SYPL1 (11715823_x_at) / Fold change /veh SYPL1 (11715823_x_at) / RFU IGFBP7 (11715501_s_at) / Fold change /veh IGFBP7 (11715501_s_at) / RFU REEP3 (11722064_at) / Fold change /veh REEP3 (11722064_at) / RFU IGLL1 (11728026_x_at) / Fold change /veh IGLL1 (11728026_x_at): dose or concentration left out as unconfirmed
Details: ProbeSet 11758919_x_at; LIST D

For Nc1ncn([C@@H]2O[C@H](CO)[C@@H](O)[C@H]2O)c(=O)n1 [azacitidine], the “Fold change vs veh, TFCP2” value was 0.71.
